Source: US9040516B2, “Uracil derivative and use thereof for medical purposes” (SUMITOMO DAINIPPON PHARMA CO., LTD., priority 2011, dated 2015)

Experiments:
[1] = target: T1, human neutrophil elastase (Homo sapiens, UniProt P08246); assay: Inhibitory action 2 against human neutrophil elastase (Test Example 2; fluorogenic substrate MeOSuc-AAPV-AMC, buffer with 400 mM NaCl, 0.2 mg/ml BSA); type: biochemical; conditions: 37° C., read-out: IC50 value (compound concentration required for 50% inhibition of human neutrophil elastase)
T1 construct: purchased Elastin Products Company
T1 sequence (P08246 30-267): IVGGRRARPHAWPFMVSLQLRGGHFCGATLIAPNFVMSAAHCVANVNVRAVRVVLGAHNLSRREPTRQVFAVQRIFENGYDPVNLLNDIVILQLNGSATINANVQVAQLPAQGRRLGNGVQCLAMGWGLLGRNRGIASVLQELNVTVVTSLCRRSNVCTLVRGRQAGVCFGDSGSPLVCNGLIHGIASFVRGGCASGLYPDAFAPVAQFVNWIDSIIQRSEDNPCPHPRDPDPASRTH
Summary of the method: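 HNE (0.4 unit/ml in buffer) preincubated 5 min at 37° C with compound in 200 mM HEPES pH 7.5, 400 mM NaCl, 0.2 mg/ml BSA; reaction started with MeOSuc-AAPV-AMC (0.5 mM stock) and run 5 min at 37° C. AMC fluorescence (ex 380, em 460 nm) gave percent inhibition.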

[2] = target: T1, human neutrophil elastase; assay: Inhibitory action against human neutrophil elastase (Test Example 1; fluorogenic substrate MeOSuc-AAPV-AMC, buffer with 2M NaCl, 0.002% Brij-35); type: biochemical; conditions: 37° C., read-out: IC50 value (compound concentration required for 50% inhibition of human neutrophil elastase)
Description: Assay buffer (0.4 unit/ml HNE (human neutrophil elastase, available from Elastin Products Company), 200 mM HEPES [N-(2-hydroxyethyl)piperazine-N′-(2-ethanesulfonic acid)], pH 7.5, 2M NaCl, 0.002% Brij-35) 100 μl, water for injection 40 μl and DMSO (dimethyl sulfoxide) solution of the present compound 20 μl were mixed in a 96 well plate and the mixed solutions were pre-incubated at 37° C. for five minutes. After pre-incubation, MeOSuc-AAPV-AMC (methoxysuccinyl-alanyl-alanyl-prolyl-valyl-aminomethyl cumaride (available from Sigma Aldrich Co.) solution as fluorogenic substrate (which was dissolved in 10% DMSO solution so as to adjust to 0.5 mM) 40 μl was added to the above-prepared mixed solution so as to initiate the reaction, and the mixture was incubated at 37° C. for five minutes. The fluorescence intensity of AMC was measured at an excitation wavelength of 380 nm and a fluorescence wavelength of 460 nm and the inhibition ratio was determined.

Structure (SMILES): Cc1c(-c2c(C(=O)N3CCCC3)cnn2-c2ccc(C#N)cc2)c(=O)n(C)c(=O)n1-c1cccc(C(F)(F)F)c1 [Example 162]
- IC50 [1]: 12.6 nM
- melting point: 227 °C

Structure (SMILES): Cc1c(-c2ccnn2-c2ccc(C#N)cc2)c(=O)n(C)c(=O)n1-c1cccc(Cl)c1 [Example 17, 4-[5-[1-(3-chlorophenyl)-3,6-dimethyl-2,4-dioxo-1,2,3,4-tetrahydropyrimidin-5-yl]-1H-pyrazol-1-yl]benzonitrile]
- IC50 [2]: 95 nM
- IC50 [1]: 23.4 nM

Structure (SMILES): Cc1c(-c2c(C(N)=O)cnn2-c2ccc(C#N)cc2)c(=O)n(C)c(=O)n1-c1cccc(C(F)(F)F)c1 [Example 148]
- IC50 [1]: 14.5 nM
- melting point: 263 °C

Structure (SMILES): Cc1cccc(-n2c(C)c(-c3ccnn3-c3ccc(C#N)cc3)c(=O)n(C)c2=O)c1 [Example 37, 4-(5-(3,6-dimethyl-2,4-dioxo-1-m-tolyl-1,2,3,4-tetrahydropyrimidin-5-yl)-1H-pyrazol-1-yl)benzonitrile]
- IC50 [2]: 191 nM
- IC50 [1]: 64.2 nM

Structure (SMILES): CCCn1c(=O)c(-c2ccnn2-c2ccc(C#N)cc2)c(C)n(-c2cccc(C(F)(F)F)c2)c1=O [Example 2, 4-[5-[6-methyl-2,4-dioxo-3-propyl-1-(3-trifluoromethylphenyl)-1,2,3,4-tetrahydropyrimidin-5-yl]-1H-pyrazol-1-yl]benzonitrile]
- IC50 [2]: 35 nM
- IC50 [1]: 18.6 nM

Structure (SMILES): Cc1c(-c2ccnn2-c2ccc(C#N)cc2)c(=O)n(C(C)C(N)=O)c(=O)n1-c1cccc(C(F)(F)F)c1 (centres unmarked) [Example 377]
- IC50 [1]: 11 nM
- melting point: 226 °C

Structure (SMILES): Cc1c(-c2ccnn2-c2ccc(C#N)cc2)c(=O)n(C)c(=O)n1-c1cccc(C(F)(F)F)c1 [Example 1, 4-[5-[3,6-dimethyl-2,4-dioxo-1-(3-trifluoromethylphenyl)-1,2,3,4-tetrahydropyrimidin-5-yl]-1H-pyrazol-1-yl]benzonitrile]
- IC50 [2]: 19 nM
- IC50 [1]: 16.9 nM

Structure (SMILES): Cc1c(-c2ccnn2-c2ccc(C#N)cc2)c(=O)n(C)c(=O)n1-c1cccc(Br)c1 [Example 34, 4-[5-[1-(3-bromophenyl)-3,6-dimethyl-2,4-dioxo-1,2,3,4-tetrahydropyrimidin-5-yl]-1H-pyrazol-1-yl]benzonitrile]
- IC50 [2]: 232 nM

Structure (SMILES): Cc1c(-c2ccnn2-c2ccc(C#N)cc2)c(=O)n(C)c(=O)n1-c1cccc([N+](=O)[O-])c1 [Example 18, 4-[5-[1-(3-nitrophenyl)-3,6-dimethyl-2,4-dioxo-1,2,3,4-tetrahydropyrimidin-5-yl]-1H-pyrazol-1-yl]benzonitrile]
- IC50 [2]: 47 nM

Structure (SMILES): Cc1c(-c2ccnn2-c2ccc(C#N)nc2)c(=O)n(C)c(=O)n1-c1cccc(C(F)(F)F)c1 [Example 23, 5-[5-[3,6-dimethyl-2,4-dioxo-1-(3-trifluoromethylphenyl)-1,2,3,4-tetrahydropyrimidin-5-yl]-1H-pyrazol-1-yl]picolinonitrile]
- IC50 [2]: 651 nM

Structure (SMILES): CNC(=O)Cn1c(=O)c(-c2ccnn2-c2ccc(C#N)cc2)c(C)n(-c2cccc(C(F)(F)F)c2)c1=O [Example 77, 2-[5-[1-(4-cyanophenyl)-1H-pyrazol-5-yl]-4-methyl-2,6-dioxo-3-(3-trifluoromethylphenyl)-2,3-dihydropyrimidin-1(6H)-yl]-N-methylacetamide]
- IC50 [2]: 184 nM

Structure (SMILES): Cc1c(-c2ccnn2-c2ccc(C#N)cc2)c(=O)n(C)c(=O)n1-c1cccc(C(F)(F)F)c1 [Example 31, 4-[5-[3,6-dimethyl-2,4-dioxo-1-(3-trifluoromethylphenyl)-1,2,3,4-tetrahydropyrimidin-5-yl]-1H-pyrazol-1-yl]benzonitrile]
- IC50 [2]: 19 nM

Structure (SMILES): Cc1c(-c2ccnn2-c2ccc(C#N)cc2)c(=O)n(C)c(=O)n1-c1ccccc1 [Example 14, 4-[5-(1-phenyl-3,6-dimethyl-2,4-dioxo-1,2,3,4-tetrahydropyrimidin-5-yl)-1H-pyrazol-1-yl]benzonitrile]
- IC50 [2]: 12600 nM

Structure (SMILES): Cc1c(-c2ccnn2-c2ccc(C#N)cc2)c(=O)n(CC(=O)OCc2ccccc2)c(=O)n1-c1cccc(C(F)(F)F)c1 [Example 6, 2-[5-[1-(4-cyanophenyl)-1H-pyrazol-5-yl]-4-methyl-2,6-dioxo-3-(3-trifluoromethylphenyl)-2,3-dihydropyrimidin-1(6H)-yl]acetic acid benzyl ester]
- IC50 [2]: 123 nM

Structure (SMILES): Cc1c(-c2ccnn2-c2ccc(C#N)cc2)c(=O)n(CC(=O)N[C@@H](C)c2ccccc2)c(=O)n1-c1cccc(C(F)(F)F)c1 [Example 82, (S)-2-(5-(1-(4-cyanophenyl)-1H-pyrazole-5-yl)-4-methyl-2,6-dioxo-3-(3-(trifluoromethyl)phenyl)-2,3-dihydropyrimidin-1(6H)-yl)-N-(1-phenylethyl)acetamide]
- IC50 [2]: 108 nM

Structure (SMILES): Cc1c(-c2ccnn2-c2ccc(C#N)cc2)c(=O)n(C)c(=O)n1-c1cccc(-c2ccccc2)c1 [Example 107, 4-(5-(1-(Biphenyl-3-yl)-3,6-dimethyl-2,4-dioxo-1,2,3,4-tetrahydropyrimidin-5-yl)-1H-pyrazol-1-yl)benzonitrile]
- IC50 [2]: 5400 nM
